Measured values reported in ChEMBL document CHEMBL1125124, “Tertiary 2-haloethylamine derivatives of the muscarinic agent McN-A-343, [4-[[N-(3-chlorophenyl)carbamoyl]oxy]-2-butynyl]trimethylammonium chloride” (J Med Chem, 1990).
Active and inactive are the calls of the source. No cut-off for these calls is given here.

Legend:
[1] = Rate constant (cyclization rate) in CD3CN-deuterated phosphate buffer at pH 7.4; format: ADME
[2] = Lethal dose was determined in male Swiss-Webster mice by intravenous injection using up-and-down method; format: toxicity, organism-based; settings: mouse, in vivo
[3] = Half life was determined; format: ADME
Mus musculus = test: Peripheral muscarinic effect was evaluated in mice by intravenous injection; No visible tremors or salivation observed; format: functional, organism-based

Compound	K1 [1] [min⁻¹]	LD50 [2] [µmol/kg]	K2 [1] [min⁻¹]	half-life [3] [h]	Activity (Mus musculus)
CN(CC#CCOC(=O)Nc1cccc(Cl)c1)CCBr	0.27	57.2	–	–	–
CN(CC#CCOC(=O)Nc1cccc(Cl)c1)CCCl	0.0089	166	0.099	1.87	–
C[N+](C)(C)CC#CCOC(=O)Nc1cccc(Cl)c1.[Cl-]	–	3.7	–	–	inactive
